The target of the experiment is T1, human recombinant FKBP12 (Homo sapiens, UniProt P62942).
T1 construct: purchased Sigma F-5398
T1 sequence (P62942 whole entry): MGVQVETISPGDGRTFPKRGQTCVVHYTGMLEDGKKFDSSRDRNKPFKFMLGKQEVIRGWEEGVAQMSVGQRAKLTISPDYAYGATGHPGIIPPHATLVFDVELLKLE
Put plainly: Test 1: immunophilin FKBP12 rotamase (peptidylprolyl isomerase) inhibiting activity. It is filed as biochemical. As to conditions: 12 nM human recombinant FKBP12, substrate succinyl-Ala-Phe-Pro-Phe-paranitroanilide 48 μM, 4° C.; read-out: PKBP12 rotamase inhibiting activity IC50. The protocol:
(Test 1) Test for Measuring Immunophilin FKBP12 Rotamase Activity
The rotamase (peptidylprolyl isomerase) inhibiting activity of each test compound was measured by a known method (Harding et al., Nature 341, 758-760, 1989; Holts et al., J. Am. Chem. Soc. 115, 9925-9938, 1993.) To be more specific, a plastic cuvette was charged with 35 mM HEPES (pH 7.8), 12 nM human recombinant FKBP12 (Sigma, F-5398), 0.4 mg/mL α-chymotrypsin, and a test compound dissolved in DMSO at varying concentrations (DMSO's final concentration was 0.1%.) Subsequently, 24 mM of the substrate peptide, succinyl-Ala-Phe-Pro-Phe-paranitroanilide, as dissolved in trifluoroethanol containing 500 mM of LiCl was added to give a final concentration of 48 μM, whereupon reaction started. The reaction was carried out at 4° C. and the change in absorbance at 390 nm accompanying the liberation of the paranitroaniline product was monitored. A calculated initial rate minus the corresponding value in the absence of the enzyme was used as an index of rotamase activity. The rotamase inhibiting activity of a test compound was expressed in relative values (%) with respect to the control value of rotamase activity in the absence of the compound, and the concentration of the compound at which it was capable of inhibiting rotamase activity by 50% was calculated as an IC50 value from its concentration response curve.
As to `COc1cc(OCc2cc([C@@H]3CCCN3C(=O)C(F)(F)C3(O)CC(C)(C)CC(C)(C)C3)no2)cc(OC)c1OC` [Compound 21, (S)-2,2-Difluoro-2-(1-hydroxy-3,3,5,5-tetramethylcyclohexyl)-1-(2-(5-((3,4,5-trimethoxyphenoxy)methyl)isoxazol-3-yl)pyrrolidin-1-yl)ethanone], the concentration for half-maximal inhibition (IC50) was found to be 64 nM.
For `COc1ccc(OCc2cc([C@@H]3CCCN3C(=O)C(F)(F)C3(O)CC(C)(C)CC(C)(C)C3)no2)cn1` [Compound 41, (S)-2,2-Difluoro-2-(1-hydroxy-3,3,5,5-tetramethylcyclohexyl)-1-(2-(5-(((6-methoxypyridin-3-yl)oxy)methyl)isoxazol-3-yl)pyrrolidin-1-yl)ethanone] the value was 150 nM.
`CC1(C)CC(C)(C)CC(O)(C(F)(F)C(=O)N2CCC[C@H]2c2cc(CO)on2)C1` [Compound 18, (S)-2,2-Difluoro-2-(1-hydroxy-3,3,5,5-tetramethylcyclohexyl)-1-(2-(5-(hydroxymethyl)isoxazol-3-yl)pyrrolidin-1-yl)ethanone]: the IC50 was in the range of 500 to 1000 nM.
In the case of `CC1(C)CC(C)(C)CC(O)(C(F)(F)C(=O)N2CCC[C@H]2c2cc(C(C)(C)O)on2)C1` [Compound 49], the IC50 lay in the range of 500 to 1000 nM.
With `COc1ccc(OCc2noc([C@@H]3CCCN3C(=O)C(F)(F)C3(O)CC(C)(C)CC(C)(C)C3)n2)cc1OC` [Compound 3, (S)-1-(2-(3-((3,4-Dimethoxyphenoxy)methyl)-1,2,4-oxadiazol-5-yl)pyrrolidin-1-yl)-2,2-difluoro-2-(1-hydroxy-3,3,5,5-tetramethylcyclohexyl)ethanone], the half-maximal inhibitory concentration (IC50) lay within 500 to 1000 nM.
Take `COc1ccc(OCc2cnc([C@@H]3CCCN3C(=O)C(F)(F)C3(O)CC(C)(C)CC(C)(C)C3)o2)cc1OC` [Compound 6, (S)-1-(2-(5-((3,4-Dimethoxyphenoxy)methyl)oxazol-2-yl)pyrrolidin-1-yl)-2,2-difluoro-2-(1-hydroxy-3,3,5,5-tetramethylcyclohexyl)ethanone]: the half-inhibitory concentration (IC50) was 500 to 1000 nM.
For the compound `CC1(C)CC(C)(C)CC(O)(C(F)(F)C(=O)N2CCC[C@H]2c2cc(COc3ncccn3)on2)C1` [Compound 58, (S)-2,2-Difluoro-2-(1-hydroxy-3,3,5,5-tetramethylcyclohexyl)-1-(2-(5-((pyrimidin-2-yloxy)methyl)isoxazol-3-yl)pyrrolidin-1-yl)ethanone], the concentration for half-maximal inhibition (IC50) was 250 nM.
Turning to `COc1cccc(OCc2nnc([C@@H]3CCCN3C(=O)C(F)(F)C3(O)CC(C)(C)CC(C)(C)C3)o2)c1` [Compound 26], the IC50 was in the range of 500 to 1000 nM.
As for `CC1(C)CC(C)(C)CC(O)(C(F)(F)C(=O)N2CCC[C@H]2c2cc(CN)on2)C1` [Compound 42, (S)-1-(2-(5-(Aminomethyl)isoxazol-3-yl)pyrrolidin-1-yl)-2,2-difluoro-2-(1-hydroxy-3,3,5,5-tetramethylcyclohexyl)ethanone], the half-inhibitory concentration (IC50) was 447 nM.
Next, `COc1ccc(-c2nnc([C@@H]3CCCN3C(=O)C(F)(F)C3(O)CC(C)(C)CC(C)(C)C3)o2)cc1OC` [Compound 13]: 434 nM.
On to `CC1(C)CC(C)(C)CC(O)(C(F)(F)C(=O)N2CCC[C@H]2c2nnc(COc3ccc4c(c3)OCO4)o2)C1` [Compound 32], for which the half-inhibitory concentration (IC50) is 165 nM.
As for `CC1(C)CC(C)(C)CC(O)(C(F)(F)C(=O)N2CCC[C@H]2c2cc(COc3ccnnc3)on2)C1` [Compound 53, (S)-2,2-Difluoro-2-(1-hydroxy-3,3,5,5-tetramethylcyclohexyl)-1-(2-(5-((pyridazin-4-yloxy)methyl)isoxazol-3-yl)pyrrolidin-1-yl)ethanone], the IC50 was 86 nM.
With `CC1(C)CC(C)(C)CC(O)(C(F)(F)C(=O)N2CCC[C@H]2c2nnc(CNC(=O)c3ccccc3)o2)C1` [Compound 38, (S)—N-((5-(1-(2,2-Difluoro-2-(1-hydroxy-3,3,5,5-tetramethylcyclohexyl)acetyl)pyrrolidin-2-yl)-1,3,4-oxadiazol-2-yl)methyl)benzamide], the IC50 was 500 to 1000 nM.
Take `COc1ccc(OCc2nnc([C@@H]3CCCN3C(=O)C(F)(F)C3(O)CC(C)(C)CC(C)(C)C3)o2)cn1` [Compound 31]: the concentration for half-maximal inhibition (IC50) amounted to 389 nM.
Next, `COc1ccc(CCc2nnc([C@@H]3CCCN3C(=O)C(F)(F)C3(O)CC(C)(C)CC(C)(C)C3)o2)cc1OC` [Compound 12]: 270 nM; `CN(C)Cc1nnc([C@@H]2CCCN2C(=O)C(F)(F)C2(O)CC(C)(C)CC(C)(C)C2)o1` [Compound 39, (S)-1-(2-(5-((Dimethylamino)methyl)-1,3,4-oxadiazol-2-yl)pyrrolidin-1-yl)-2,2-difluoro-2-(1-hydroxy-3,3,5,5-tetramethylcyclohexyl)ethanone]: 500 to 1000 nM; `CC1(C)CC(C)(C)CC(O)(C(F)(F)C(=O)N2CCC[C@H]2c2cc(COc3cccnn3)on2)C1` [Compound 56, (S)-2,2-Difluoro-2-(1-hydroxy-3,3,5,5-tetramethylcyclohexyl)-1-(2-(5-((pyridazin-3-yloxy)methyl)isoxazol-3-yl)pyrrolidin-1-yl)ethanone]: 328 nM.
For the compound `COc1ccc(OCc2nnc([C@@H]3CCCN3C(=O)C(F)(F)C3(O)CC(C)(C)CC(C)(C)C3)o2)c(OC)c1` [Compound 30], the half-maximal inhibitory concentration (IC50) worked out at 220 nM.
Turning to `COc1ccc(OCc2nnc([C@@H]3CCCN3C(=O)C(F)(F)C3(O)CC(C)(C)CC(C)(C)C3)s2)cc1OC` [Compound 4, (S)-1-(2-(5-((3,4-Dimethoxyphenoxy)methyl)-1,3,4-thiadiazol-2-yl)pyrrolidin-1-yl)-2,2-difluoro-2-(1-hydroxy-3,3,5,5-tetramethylcyclohexyl)ethanone], the IC50 is 145 nM.
For `CC1(C)CC(C)(C)CC(O)(C(F)(F)C(=O)N2CCC[C@H]2c2cc(CNC(=O)c3ccccc3)on2)C1` [Compound 44, (S)—N-((3-(1-(2,2-Difluoro-2-(1-hydroxy-3,3,5,5-tetramethylcyclohexyl)acetyl)pyrrolidin-2-yl)isoxazol-5-yl)methyl)benzamide] the value was 166 nM.
Turning to `CC1(C)CC(C)(C)CC(O)(C(F)(F)C(=O)N2CCC[C@H]2c2nnc(COc3ccc4cc[nH]c4c3)o2)C1` [Compound 33], the IC50 came out at 259 nM.
In the case of `CC1(C)CC(C)(C)CC(O)(C(F)(F)C(=O)N2CCC[C@H]2c2nnc(COc3cncnc3)o2)C1` [Compound 36], the half-inhibitory concentration (IC50) was in the range of 1000 to 2000 nM.
On to `CC1(C)CC(C)(C)CC(O)(C(F)(F)C(=O)N2CCC[C@H]2c2nnc(CN)o2)C1` [Compound 37], for which the IC50 fell in the range of 1000 to 2000 nM.
For the compound `CC1(C)CC(C)(C)CC(O)(C(F)(F)C(=O)N2CCC[C@H]2c2cc(CNS(=O)(=O)c3ccccc3)on2)C1` [Compound 45, (S)—N-((3-(1-(2,2-Difluoro-2-(1-hydroxy-3,3,5,5-tetramethylcyclohexyl)acetyl)pyrrolidin-2-yl)isoxazol-5-yl)methyl)benzenesulfonamide], the IC50 came out at 101 nM.
For `CC1(C)CC(C)(C)CC(O)(C(F)(F)C(=O)N2CCC[C@H]2c2nnc(COc3cccnc3)o2)C1` [Compound 17], the IC50 is 356 nM.
For the compound `CC1(C)CC(C)(C)CC(O)(C(F)(F)C(=O)N2CCC[C@H]2c2cc(CNC(=O)Cc3ccccc3)on2)C1` [Compound 48], the IC50 is 94 nM.
For `Cc1ccc(OCc2cc([C@@H]3CCCN3C(=O)C(F)(F)C3(O)CC(C)(C)CC(C)(C)C3)no2)cc1` [Compound 65] the value was 241 nM.
Take `COc1ccc(C(=O)NCc2cc([C@@H]3CCCN3C(=O)C(F)(F)C3(O)CC(C)(C)CC(C)(C)C3)no2)cc1OC` [Compound 50]: the half-maximal inhibitory concentration (IC50) came to 117 nM.

Usually IC50 stands for the concentration that gives 50% inhibition.
